The source made the active and inactive calls. The rule behind the calls is not given here.
Tests used:
MUS81-ECE2 [1] = molecular target: T1, MUS81-ECE2 (Homo sapiens, UniProt P0DPD6+Q96NY9); test: Inhibition of human GST-tagged MUS81-[…] expressed in Escherichia coli BL21(DE3)Rosetta2 cells incubated for 15 mins by FRET based assay
T1 sequence (P0DPD6 whole entry): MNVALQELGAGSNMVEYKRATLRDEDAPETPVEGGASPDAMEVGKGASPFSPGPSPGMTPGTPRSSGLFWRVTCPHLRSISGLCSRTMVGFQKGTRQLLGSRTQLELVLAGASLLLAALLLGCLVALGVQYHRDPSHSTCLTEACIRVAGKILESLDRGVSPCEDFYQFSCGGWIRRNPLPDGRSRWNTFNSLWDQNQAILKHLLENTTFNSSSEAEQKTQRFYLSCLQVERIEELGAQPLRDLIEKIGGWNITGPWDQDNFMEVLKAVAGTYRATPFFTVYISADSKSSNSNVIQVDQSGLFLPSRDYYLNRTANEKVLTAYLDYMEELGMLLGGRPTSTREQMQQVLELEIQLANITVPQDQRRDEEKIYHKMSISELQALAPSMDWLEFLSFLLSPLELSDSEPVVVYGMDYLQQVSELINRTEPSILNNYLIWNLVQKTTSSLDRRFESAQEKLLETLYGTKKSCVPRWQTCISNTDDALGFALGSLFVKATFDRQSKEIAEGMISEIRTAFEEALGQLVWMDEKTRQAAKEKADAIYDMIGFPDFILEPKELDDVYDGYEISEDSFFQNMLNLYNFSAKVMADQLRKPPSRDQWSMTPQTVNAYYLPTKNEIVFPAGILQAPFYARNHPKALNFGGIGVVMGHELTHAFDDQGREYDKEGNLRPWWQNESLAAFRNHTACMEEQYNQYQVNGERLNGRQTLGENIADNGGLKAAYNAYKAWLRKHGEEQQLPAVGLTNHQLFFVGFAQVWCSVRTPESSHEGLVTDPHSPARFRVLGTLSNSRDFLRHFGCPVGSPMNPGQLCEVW
T1 sequence (Q96NY9 whole entry): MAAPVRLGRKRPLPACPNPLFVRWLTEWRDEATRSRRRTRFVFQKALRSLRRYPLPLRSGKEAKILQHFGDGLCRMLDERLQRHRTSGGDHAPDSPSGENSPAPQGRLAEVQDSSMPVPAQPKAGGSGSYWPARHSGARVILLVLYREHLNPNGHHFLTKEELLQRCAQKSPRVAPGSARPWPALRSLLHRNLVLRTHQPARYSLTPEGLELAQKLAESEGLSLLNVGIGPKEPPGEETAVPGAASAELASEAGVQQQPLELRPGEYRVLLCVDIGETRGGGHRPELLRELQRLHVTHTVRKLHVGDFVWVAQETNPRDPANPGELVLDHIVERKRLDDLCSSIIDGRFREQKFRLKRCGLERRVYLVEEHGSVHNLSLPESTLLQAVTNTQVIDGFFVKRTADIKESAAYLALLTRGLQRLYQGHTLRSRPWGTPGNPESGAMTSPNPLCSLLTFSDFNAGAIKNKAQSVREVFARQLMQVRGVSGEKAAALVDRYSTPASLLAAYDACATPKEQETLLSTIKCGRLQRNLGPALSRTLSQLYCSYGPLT

[2] = molecular target: T2, MUS81-ECE1 (Homo sapiens) (UniProt P42892+Q96NY9); test: Inhibition of human GST-tagged MUS81-[…] expressed in Escherichia coli BL21(DE3)Rosetta2 cells using 3' FLAP as substrate incubated for 15 mins by FRET based assay; details: dose 0.2-20 µM
[3] = molecular target: T2, MUS81-ECE1 (Homo sapiens); test: Inhibition of human GST-tagged MUS81-[…] expressed in Escherichia coli BL21(DE3)Rosetta2 cells using nDS as substrate incubated for 15 mins by FRET based assay; details: dose 0.2-20 µM
[4] = molecular target: T2, MUS81-ECE1 (Homo sapiens); test: Inhibition of human GST-tagged MUS81-[…] expressed in Escherichia coli BL21(DE3)Rosetta2 cells using nHJ as substrate incubated for 15 mins by FRET based assay; details: dose 0.2-20 µM
[5] = molecular target: T3, MUS81-ECE2 (Homo sapiens) (UniProt P0DPD6+Q96NY9); test: Inhibition of human GST-tagged MUS81-[…] expressed in Escherichia coli BL21(DE3)Rosetta2 cells using 3' FLAP as substrate incubated for 15 mins by FRET based assay; details: dose 0.2-20 µM
[6] = molecular target: T3, MUS81-ECE2 (Homo sapiens); test: Inhibition of human GST-tagged MUS81-[…] expressed in Escherichia coli BL21(DE3)Rosetta2 cells using nDS as substrate incubated for 15 mins by FRET based assay; details: dose 0.2-20 µM
[7] = molecular target: T3, MUS81-ECE2 (Homo sapiens); test: Inhibition of human GST-tagged MUS81-[…] expressed in Escherichia coli BL21(DE3)Rosetta2 cells using nHJ as substrate incubated for 15 mins by FRET based assay; details: dose 0.2-20 µM
[8] = molecular target: T2, MUS81-ECE1 (Homo sapiens); test: Binding affinity to human GST-tagged MUS81-[…] expressed in Escherichia coli BL21(DE3)Rosetta2 cells assessed as Kon by Surface plasmon resonance analysis
[9] = molecular target: T2, MUS81-ECE1 (Homo sapiens); test: Binding affinity to human GST-tagged MUS81-[…] expressed in Escherichia coli BL21(DE3)Rosetta2 cells assessed as Koff by Surface plasmon resonance analysis
[10] = molecular target: T3, MUS81-ECE2 (Homo sapiens); test: Binding affinity to human GST-tagged MUS81-[…] expressed in Escherichia coli BL21(DE3)Rosetta2 cells assessed as Kon by Surface plasmon resonance analysis
[11] = molecular target: T3, MUS81-ECE2 (Homo sapiens); test: Binding affinity to human GST-tagged MUS81-[…] expressed in Escherichia coli BL21(DE3)Rosetta2 cells assessed as Koff by Surface plasmon resonance analysis
MUS81-ECE2 [12] = molecular target: T1, MUS81-ECE2; test: Binding affinity to human GST-tagged MUS81-[…] expressed in Escherichia coli BL21(DE3)Rosetta2 cells assessed as dissociation constant by Surface plasmon resonance analysis
[13] = molecular target: T2, MUS81-ECE1 (Homo sapiens); test: Binding affinity to human GST-tagged MUS81-[…] expressed in Escherichia coli BL21(DE3)Rosetta2 cells at more than 5 uM using nDS as substrate incubated for 30 mins by electrophoretic mobility shift assay
HeLa [14] = test: Inhibition of bleomycin-induced DNA-double stranded breaks in human HeLa cells assessed as reduction in gammaH2AX phosphorylation at serine 139 residue at 20 uM incubated for 1 hr by hoechst 33342 staining based immunofluorescence microscopic analysis; type: functional, cell-based
HeLa [15] = test: Inhibition of bleomycin-induced DNA-double stranded breaks in human HeLa cells assessed as reduction in gammaH2AX level by Western blot analysis; type: functional, cell-based
MDA-MB-231 [16] = test: Chemosensitivity of bleomycin-treated human MDA-MB-231 cells assessed as reduction in cell viability at 0.1 to 100 uM incubated for 24 hrs CCK-8 assay; type: functional, cell-based; details: dose 0.1-100 µM
MDA-MB-231 [17] = test: Chemosensitivity of cisplatin-treated human MDA-MB-231 cells assessed as reduction in cell viability at 0.1 to 100 uM incubated for 24 hrs CCK-8 assay; type: functional, cell-based; details: dose 0.1-100 µM
HeLa [18] = test: Chemosensitivity of bleomycin-treated human HeLa cells assessed as reduction in cell viability at 0.1 to 100 uM incubated for 24 hrs CCK-8 assay; type: functional, cell-based; details: dose 0.1-100 µM
HeLa [19] = test: Chemosensitivity of cisplatin-treated human HeLa cells assessed as reduction in cell viability at 0.1 to 100 uM incubated for 24 hrs CCK-8 assay; type: functional, cell-based; details: dose 0.1-100 µM
HepG2 [20] = test: Chemosensitivity of bleomycin-treated human HepG2 cells assessed as reduction in cell viability at 0.1 to 100 uM incubated for 24 hrs CCK-8 assay; type: functional, cell-based; details: dose 0.1-100 µM
HepG2 [21] = test: Chemosensitivity of cisplatin-treated human HepG2 cells assessed as reduction in cell viability at 0.1 to 100 uM incubated for 24 hrs CCK-8 assay; type: functional, cell-based; details: dose 0.1-100 µM
[22] = molecular target: T2, MUS81-ECE1 (Homo sapiens); test: Inhibition of human GST-tagged MUS81-[…] expressed in Escherichia coli BL21(DE3)Rosetta2 cells using 3' FLAP as substrate at 40 uM
[23] = molecular target: T2, MUS81-ECE1 (Homo sapiens); test: Inhibition of human GST-tagged MUS81-[…] expressed in Escherichia coli BL21(DE3)Rosetta2 cells using nDS as substrate at 40 uM
A549 [24] = test: Chemosensitivity of bleomycin-treated human A549 cells assessed as reduction in cell viability at 0.1 to 100 uM incubated for 24 hrs CCK-8 assay; type: functional, cell-based; details: dose 0.1-100 µM
A549 [25] = test: Chemosensitivity of cisplatin-treated human A549 cells assessed as reduction in cell viability at 0.1 to 100 uM incubated for 24 hrs CCK-8 assay; type: functional, cell-based; details: dose 0.1-100 µM

Row | K [8] [M⁻¹ s⁻¹] | K [9] [s⁻¹] | K [10] [M⁻¹ s⁻¹] | K [11] [s⁻¹] | Kd (MUS81-ECE2 [12]) [nM] | Structure (SMILES) | inhibition (HeLa [14]) | inhibition (HeLa [15]) | Activity (HeLa [18]) | Activity (HeLa [19]) | Activity (HepG2 [20]) | Activity (HepG2 [21]) | other results
1 | 6980 | 0.004 | 6420 | 0.003 | 605 | O=C(N/N=C/c1cc(O)c(O)cc1O)c1cc2ccccc2cc1O | Active | Active | inactive | inactive | inactive | inactive | IC50 (MUS81-ECE2 [1]): 2900 nM; inhibition [2]: Dose-Dependent Effect; inhibition [3]: Dose-Dependent Effect; inhibition [4]: Dose-Dependent Effect; inhibition [5]: Dose-Dependent Effect; inhibition [6]: Dose-Dependent Effect; inhibition [7]: Dose-Dependent Effect; Activity [13]: Active; Activity (MDA-MB-231 [16]): Active; Activity (MDA-MB-231 [17]): Active
2 | 934 | 0.005 | 1390 | 0.005 | 4180 | O=C(N/N=C/c1ccc(O)c(O)c1)c1cc2ccccc2cc1O [DYNASORE] | inactive | inactive | inactive | inactive | inactive | inactive | inhibition [22]: Active; inhibition [23]: Active; Activity (A549 [24]): Active; Activity (A549 [25]): Active

From ChEMBL document CHEMBL5325465, “Identification of small-molecule inhibitors of human MUS81-EME1/2 by FRET-based high-throughput screening” (Bioorg Med Chem, 2023)
